For this assay, the target named is SARS-CoV-2 Mac1 (Severe acute respiratory syndrome coronavirus 2, UniProt P0DTD1). Put plainly: biochemical. Conditions: for inhibition at 100 µM: read-out: %inhibition.

Counter-ions that a name gives are not always drawn.

Regarding `C[C@]12CC[C@@H]3c4ccc(O)cc4CC[C@H]3[C@@H]1CC[C@@H]2OC(=O)CCC1CCCC1` [Estradiol Cypionate], the inhibition (commonly how much of the control response was suppressed) at 100 µM is 0%.
For `CCCCC(=O)O[C@H]1CC[C@H]2[C@@H]3CCc4cc(O)ccc4[C@H]3CC[C@]12C` [Estradiol valerate], the inhibition at 100 µM was 3.33%.
Same read-out and setting: to `C[C@]12CC[C@@H]3c4ccc(O)cc4CC[C@H]3[C@@H]1CC[C@@H]2O` [Estradiol] belongs 0%.
On to `C[C@]12CC[C@@H]3c4ccc(O)cc4CC[C@H]3[C@@H]1C[C@@H](O)[C@@H]2O` [Estriol], for which the inhibition at 100 µM was found to be 0%.
The same measure, in the same setting: to `C[C@]12CC[C@@H]3c4ccc(O)cc4CC[C@H]3[C@@H]1CCC2=O` [Estrone] belongs 0%; to `C[C@]12CC[C@@H]3c4ccc(OS(=O)(=O)O)cc4CC[C@H]3[C@@H]1CCC2=O` [Estropipate], 8.24%; to `CCOc1ccc2nc3cc(N)ccc3c(N)c2c1` [Ethacridine lactate monohydrate], 25.8%.
The same measure, in the same setting: to `CC[C@@H](CO)NCCN[C@@H](CC)CO` [Ethambutol 2HCl] belongs 7.53%; to `O=S(=O)(O)c1cc(O)ccc1O` [Ethamsylate], 0%.
Regarding `C#C[C@]1(O)CC[C@H]2[C@@H]3CCc4cc(O)ccc4[C@H]3CC[C@@]21C` [Ethinyl Estradiol], the inhibition at 100 µM came to 0%.
Still for that read-out and setting: the figure for `CCc1cc(C(N)=S)ccn1` [Ethionamide] is 19.8%; for `CCC1(C)CC(=O)NC1=O` (stereo not drawn) [Ethosuximide] it is 0%.
The same measure, in the same setting: to `CCOC(=O)c1ccc(O)cc1` [Ethylparaben] belongs 2.11%.
On the same count and under the same terms, the figure for `C#C[C@]1(OC(C)=O)CC[C@H]2[C@@H]3CCC4=C[C@@H](OC(C)=O)CC[C@@H]4[C@H]3CC[C@@]21C` [Ethynodiol diacetate] is 0%.
As to `CC(O)(P(=O)(O)O)P(=O)(O)O` [Etidronate], the inhibition at 100 µM is 0%.
With `CCc1cccc2c3c([nH]c12)C(CC)(CC(=O)O)OCC3` (stereo not drawn) [Etodolac], the inhibition at 100 µM was determined as 0%.
In the case of `CC(C)(Oc1ccc(Cl)cc1)C(=O)OCCOC(=O)c1cccnc1` [Etofibrate], the inhibition at 100 µM worked out at 4.59%.
Same read-out and setting: the figure for `CCOC(=O)c1cncn1[C@H](C)c1ccccc1` [Etomidate] is 8.82%.
`C#C[C@]1(O)CC[C@H]2[C@@H]3CCC4=CC(=O)CC[C@@H]4[C@H]3C(=C)C[C@@]21CC` [Etonogestrel]: the inhibition at 100 µM turned out to be 0%.
Consider `COc1cc([C@@H]2c3cc4c(cc3[C@@H](O[C@@H]3O[C@@H]5CO[C@@H](C)O[C@H]5[C@H](O)[C@H]3O)[C@H]3COC(=O)[C@H]23)OCO4)cc(OC)c1O` [Etoposide], for which the inhibition at 100 µM came to 25.5%.
With `Cc1ccc(-c2ncc(Cl)cc2-c2ccc(S(C)(=O)=O)cc2)cn1` [Etoricoxib], the inhibition at 100 µM stood at 0%.
Still for that read-out and setting: to `Cc1cc(C#N)cc(C)c1Oc1nc(Nc2ccc(C#N)cc2)nc(N)c1Br` [Etravirine (TMC125)] belongs 5.29%; to `CCOC(=O)/C=C(C)/C=C/C=C(C)/C=C/c1c(C)cc(OC)c(C)c1C` [Etretinate], 24.9%.
The same measure, in the same setting: the figure for `Cc1cc(C)c2c(c1)[C@@H](N(Cc1cc(C(F)(F)F)cc(C(F)(F)F)c1)c1nnn(C)n1)CCCN2C[C@H]1CC[C@H](C(=O)O)CC1` [Evacetrapib (LY2484595)] is 28.7%; for `CO[C@H]1C[C@@H]2CC[C@@H](C)[C@@](O)(O2)C(=O)C(=O)N2CCCC[C@H]2C(=O)O[C@H]([C@H](C)C[C@@H]2CC[C@@H](OCCO)[C@H](OC)C2)CC(=O)[C@H](C)/C=C(\C)[C@@H](O)[C@@H](OC)C(=O)[C@H](C)C[C@H](C)/C=C/C=C/C=C/1C` [Everolimus (RAD001)] it is 11.2%.
For `Cn1c(COP(=O)(NCCBr)NCCBr)cnc1[N+](=O)[O-]` [Evofosfamide (TH-302)], the inhibition at 100 µM was 12.7%.
Take `C=C1C[C@@H]2[C@H](CC[C@]3(C)C(=O)CC[C@@H]23)[C@@]2(C)C=CC(=O)C=C12` [Exemestane]: the inhibition at 100 µM came out at 11.1%.
Regarding `O=C1[C@H](CC[C@H](O)c2ccc(F)cc2)[C@@H](c2ccc(O)cc2)N1c1ccc(F)cc1` [Ezetimibe], the inhibition at 100 µM came to 5.79%.
As to `CC(=O)OCC(CCn1cnc2cnc(N)nc21)COC(C)=O` [Famciclovir], the inhibition at 100 µM came out at 0%.
With `NC(N)=Nc1nc(CSCC/C(N)=N/S(N)(=O)=O)cs1` [Famotidine], the inhibition at 100 µM stood at 1.86%.
With `C[C@@H](O)[C@H]1C(=O)N2C(C(=O)O)=C([C@H]3CCCO3)S[C@H]12` [Faropenem Sodium], the inhibition at 100 µM was 0%.
For the molecule `O=S(=O)(c1cccc2cnccc12)N1CCCNCC1` [Fasudil (HA-1077) HCl], the inhibition at 100 µM was determined as 0%.
Same read-out and setting: to `NC(=O)c1nc(F)cnc1O` [Favipiravir (T-705)] belongs 0.111%.
Turning to `Cc1nc(-c2ccc(OCC(C)C)c(C#N)c2)sc1C(=O)O` [Febuxostat], the inhibition at 100 µM came to 4.8%.
The same measure, in the same setting: to `Cc1cnc(Nc2ccc(OCCN3CCCC3)cc2)nc1Nc1cccc(S(=O)(=O)NC(C)(C)C)c1` [Fedratinib (SAR302503, TG101348)] belongs 17.5%.
For `NC(=O)OCC(COC(N)=O)c1ccccc1` [Felbamate], the inhibition at 100 µM amounted to 22%.
On to `O=C(O)CCC(=O)c1ccc(-c2ccccc2)cc1` [Fenbufen], for which the inhibition at 100 µM amounted to 0%.
Still for that read-out and setting: to `CCCCC(O)c1ccccc1` (stereo not drawn) [Fenipentol] belongs 4.29%; to `CC(C)OC(=O)C(C)(C)Oc1ccc(C(=O)c2ccc(Cl)cc2)cc1` [Fenofibrate], 28.9%.
In the case of `CC(C)(Oc1ccc(C(=O)c2ccc(Cl)cc2)cc1)C(=O)O` [Fenofibric acid], the inhibition at 100 µM turned out to be 0%.
`Oc1ccc(C2CNCCc3c2cc(O)c(O)c3Cl)cc1` (stereo not drawn) [Fenoldopam mesylate]: the inhibition at 100 µM was 0%.
Take `CC(C(=O)O)c1cccc(Oc2ccccc2)c1` (stereo not drawn) [Fenoprofen Calcium]: under “100 µM, inhibitor”, the %inhibition – broadly, the share of the control response that was lost under treatment – is recorded as 9.442%.
Regarding `CC(C(=O)O)c1cccc(Oc2ccccc2)c1` (stereo not drawn) [Fenoprofen calcium hydrate], the inhibition at 100 µM is 8.96%.
In the case of `O=C1NCC2(CCN(CCc3ccccc3)CC2)O1` [Fenspiride HCl], the inhibition at 100 µM is 26.5%.
As for `Clc1ccc(C(Cn2ccnc2)OCc2ccc(Sc3ccccc3)cc2)c(Cl)c1` (stereo not drawn) [Fenticonazole Nitrate], the inhibition at 100 µM came to 0%.
`CC(C)C(=O)Oc1ccc(CO)cc1[C@H](CCN(C(C)C)C(C)C)c1ccccc1` [Fesoterodine Fumarate]: the inhibition at 100 µM worked out at 0%.
As for `CC(C)(C(=O)O)c1ccc(C(O)CCCN2CCC(C(O)(c3ccccc3)c3ccccc3)CC2)cc1` (stereo not drawn) [Fexofenadine HCl], the inhibition at 100 µM was determined as 9.61%.
Still for that read-out and setting: to `CCc1c(Cl)c(O)c(Cl)c(O)c1C(=O)O[C@H]1[C@H](O)[C@H](OC)[C@H](OC/C2=C\C=C\C[C@H](O)/C(C)=C/[C@H](CC)[C@@H](O[C@@H]3OC(C)(C)[C@@H](OC(=O)C(C)C)[C@H](O)[C@@H]3O)/C(C)=C/C(C)=C/C[C@@H]([C@@H](C)O)OC2=O)O[C@@H]1C` [Fidaxomicin] belongs 5.76%; to `O=C(Nc1nc2cccc(-c3ccc(CN4CCS(=O)(=O)CC4)cc3)n2n1)C1CC1` [Filgotinib (GLPG0634)], 17%; to `CCCCc1nc(C)c(CC(=S)N(C)C)c(=O)n1Cc1ccc(-c2ccccc2-c2nnn[nH]2)cc1` [Fimasartan], 22.3%.
Same read-out and setting: to `CC(C)(C)NC(=O)[C@H]1CC[C@H]2[C@@H]3CC[C@H]4NC(=O)C=C[C@]4(C)[C@H]3CC[C@]12C` [Finasteride] belongs 0%.
The same measure, in the same setting: the figure for `CCCCCCCCc1ccc(CCC(N)(CO)CO)cc1` [Fingolimod (FTY720) HCl] is 33%; for `CN1CC[C@H](c2c(O)cc(O)c3c(=O)cc(-c4ccccc4Cl)oc23)[C@H](O)C1` [Flavopiridol (Alvocidib)] it is 50.4%.
Take `Cc1c(-c2ccccc2)oc2c(C(=O)OCCN3CCCCC3)cccc2c1=O` [Flavoxate HCl]: the inhibition at 100 µM amounted to 0%.
With `O=c1[nH]c2ccccc2n1CCN1CCN(c2cccc(C(F)(F)F)c2)CC1` [Flibanserin], the inhibition at 100 µM turned out to be 0%.
Still for that read-out and setting: to `CCC(=O)c1c(O)cc(O)cc1O` [Flopropione] belongs 7.24%; to `CS(=O)(=O)c1ccc([C@@H](O)[C@@H](CF)NC(=O)C(Cl)Cl)cc1` [Florfenicol], 30.4%.
Same read-out and setting: to `O=c1[nH]c(=O)n([C@H]2C[C@H](O)[C@@H](CO)O2)cc1F` [Floxuridine] belongs 0%.
Turning to `COC(=O)Nc1nc2cc(C(=O)c3ccc(F)cc3)ccc2[nH]1` [Flubendazole], the inhibition at 100 µM turned out to be 4.36%.
Same read-out and setting: to `Cc1onc(-c2c(F)cccc2Cl)c1C(=O)N[C@@H]1C(=O)N2[C@@H]1SC(C)(C)[C@@H]2C(=O)O` [Flucloxacillin sodium] belongs 1.41%; to `OC(Cn1cncn1)(Cn1cncn1)c1ccc(F)cc1F` [Fluconazole], 16.6%; to `Nc1nc(=O)[nH]cc1F` [Flucytosine], 0%.
For the molecule `Nc1nc(F)nc2c1ncn2[C@@H]1O[C@H](CO)[C@@H](O)[C@@H]1O` [Fludarabine], the inhibition at 100 µM was determined as 12.7%.
For the molecule `CC(=O)OCC(=O)[C@@]1(O)CC[C@H]2[C@@H]3CCC4=CC(=O)CC[C@]4(C)[C@@]3(F)[C@@H](O)C[C@@]21C` [Fludrocortisone acetate], the inhibition at 100 µM came to 0%.
On the same count and under the same terms, to `O=C(O)c1ccccc1Nc1cccc(C(F)(F)F)c1` [Flufenamic acid] belongs 3.41%.
As for `CCOC(=O)c1ncn2c1CN(C)C(=O)c1cc(F)ccc1-2` [Flumazenil], the inhibition at 100 µM amounted to 5.44%.
Still for that read-out and setting: the figure for `CC1CCc2cc(F)cc3c(=O)c(C(=O)O)cn1c23` (stereo not drawn) [Flumequine] is 0%.
Same read-out and setting: the figure for `C[C@@H]1C[C@H]2[C@@H]3C[C@H](F)C4=CC(=O)C=C[C@]4(C)[C@@]3(F)[C@@H](O)C[C@]2(C)[C@@]1(O)C(=O)CO` [Flumethasone] is 28.1%; for `Cc1c(Nc2ncccc2C(=O)O)cccc1C(F)(F)F` [Flunixin Meglumin] it is 0%.

These data come from paper doi:10.1101/2021.10.07.463234v2 (biorxiv, 2021).
